The source of these data is paper PMC12270663, “Cagrilintide lowers bodyweight through brain amylin receptors 1 and 3” (eBioMedicine, 2025).

The subject of one assay is AMYRs and CTR. As to conditions: cited from earlier work. From the text: In a cellular assay, cagrilintide was confirmed to be a non-selective agonist of the CTR and AMYRs across multiple assays of proximal ...
The test system of assay [1] is WT and RAMP1/3 KO high fat diet fed mice. Kind of assay: Study 3: body composition by EchoMRI. In kind it is in vivo, mouse. Particulars: 150 nmol/kg/d s.c., 3 weeks. The procedure: (§1) Mice were s.c. injected once a day for 3 weeks 1 h before dark onset between 9.00 and 10.00 h. Prior to injection, daily body weight and food intake were measured manually. On the day of sacrifice, mice were anesthetised with pentobarbital (100 mg/kg, i.p., Cantonal Pharmacy of Zurich, Switzerland) 24 h after receiving the last dose of peptide.
Brains were harvested, snap frozen on dry ice and kept at −80 °C until mRNA extraction for next-generation sequencing (NGS) analysis. Blood samples were collected from the right ventricle of the heart during the sacrifice in 1 mL EDTA-coated tubes containing dipeptidyl peptidase-4 inhibitor (10 μL/mL blood; Sigma Aldrich, Switzerland, cat# DPP4-010) and protease inhibitor (30 μL/mL blood; Sigma Aldrich, Switzerland, cat# P2714). After centrifugation, plasma was kept at −80 °C. The mice were stored at −20 °C until body composition analysis was performed.
Lean and fat mass were measured post-mortem using EchoMRI (EchoMRI LLC, USA) at the Zurich Integrative Rodent Physiology (University of Zurich). Calibrations and measurements were performed according to manufacturer's instructions. Two measurements were performed and averaged per mouse. Fat mass and lean mass values are expressed as percent of body weight.

For assay [2], the system named is area postrema (AP) neurons of WT and RAMP1/3 KO mice. In words: Study 4 cohort 1: cFos positive neurons, AP. In kind it is in vivo, mouse. Particulars: second statistical test, Figure 4b. As for the experimental part:
Mice were group housed in a controlled environment maintained at 21 ± 2 °C, under a 12/12 h light–dark cycle (lights off at 11.00 h). In the first cohort, 25 male WT and 25 male RAMP1/3 KO mice aged between 12 and 20 week-old were fed chow diet and maintained under group housing condition. In the second cohort, 18 male WT, 18 male RAMP1 KO, 18 male RAMP3 KO and 18 male RAMP1/3 KO mice aged between 10 and 15 week-old were fed chow diet and maintained under group housing condition.
For both cohorts, animals were deeply anesthetised 90 min later (pentobarbital 100 mg/kg, i.p) and transcardially perfused with cold 0.1 M of phosphate buffer (PB) for 1.5 min followed by 4% of paraformaldehyde (PFA) in PB for 2.5 min. Brains were removed and postfixed overnight in 4% of PFA and cryoprotected in 20% of sucrose-PB for 24 h. Brains were frozen in hexane on dry ice and stored at −80 °C until sectioning. Stereological brain sampling of the areas of interest was performed and brain were serially cut on a cryostat (Leica Biosystems, Germany, cat# CM3050S), mounted on Superfrost Plus slides (Thermo Fisher Scientific, Reinach, Switzerland), and cryoprotected in 50% of PB, 30% of ethylene glycol, 20% of glycerol, and subsequently stored at −20 °C.
Blocking of the mouse brain sections was performed with 0.4% Triton–4% normal goat serum in PBS for 2 h at room temperature. AP/NTS and LPBN sections were incubated at 4 °C for 48 h with rabbit anti-Fos antibody (1:500, Cell signalling technology, Switzerland, Cat# 2250, RRID: AB_2247211), and then after PBS washes, incubated with goat anti-rabbit Alexa Fluor CY3 (1:200, LuBio Science GmbH, Switzerland for Jackson Immunoresearch, Cat# 111-165-144) or alexa fluor 488 for 2 h at room temperature. After thorough washing in PBS, the sections were counterstained with DAPI, mounted immediately and coverslipped with Vectashield antifade Mounting Medium (Vectorlabs, Burlingame, USA, cat# H-1400).[40]
Photomicrographs of all sections containing AP, NTS and LPBN were taken at 20× magnification using Zeiss Axio Scan.Z1 slidescanner (Center for Microscopy and Image Analysis UZH, Zeiss, Germany). All images for each study were acquired using the same exposure time. Scanned images were imported into QuPath (QuPath 0.5.0) for quantification. Three to four sections were counted and averaged per area of interest. A polygon tool was used manually to determine the boundary of the region of interest of the brain section. A cell detection tool was used to detect every cell in the section by using a built-in cell segmentation algorithm. The cell detection tool was used on the DAPI channel to make sure that only a cell was recognised and not the background or artefact by system. A detection classifier was created by using the create detection classifier function. The numbers of positive counted DAPI cells containing a cFos signal were automatically counted within the region. The experimental group was blinded to the experimenter during the analysis.

In assay [3] the test system is WT and RAMP1/3 KO high fat diet fed mice. Kind of assay: Study 3: 3-week treatment, food intake and body weight. The format is in vivo, mouse. As for the experimental part:
Male mice were housed in a controlled environment maintained at 21 ± 2 °C, under a 12/12 h light–dark cycle (lights off at 11.00 h). Mice had ad libitum access to standard chow (3.14 kcal/g of food; Kliba, Switzerland, cat# 3436) and water, until 3–4 weeks old. Twenty-four WT and twenty-four RAMP 1/3 KO male mice were fed a 60% fat HFD (5.24 kcal/g of food; SSNIFF Spezialdiäten GmbH, Germany, cat# EF D12452) provided ad libitum for 18 weeks. Then mice were fed to a 45% fat HFD (4.73 kcal/g of food; SSNIFF Spezialdiäten GmbH, Germany, cat# EF D12451) provided ad libitum for 6 weeks until the end of the study. The mice were group housed (3–4 mice per cage) until 1 week before the 21-day treatment period. Each cage was equipped with a red plastic house, tissue paper, nest-building material and wood shavings. Prior to the 21-day treatment, mice were injected with vehicle for three days to acclimate to the daily subcutaneous injections and reduce stress associated with the injections.
as §1

Consider `CC(C)C[C@H](NC(=O)[C@H](CCCCN)NC(=O)CNC(=O)[C@H](CC(C)C)NC(=O)[C@@H](NC(=O)[C@@H]1CSSC[C@H](N)C(=O)N[C@@H](CO)C(=O)N[C@@H](CC(N)=O)C(=O)N[C@@H](CC(C)C)C(=O)N[C@@H](CO)C(=O)N[C@@H]([C@@H](C)O)C(=O)N1)C(C)C)C(=O)N[C@@H](CO)C(=O)N[C@@H](CCC(N)=O)C(=O)N[C@@H](CCC(=O)O)C(=O)N[C@@H](CC(C)C)C(=O)N[C@@H](Cc1c[nH]cn1)C(=O)N[C@@H](CCCCN)C(=O)N[C@@H](CC(C)C)C(=O)N[C@@H](CCC(N)=O)C(=O)N[C@H](C(=O)N[C@@H](Cc1ccc(O)cc1)C(=O)N1CCC[C@H]1C(=O)N[C@@H](CCCNC(=N)N)C(=O)N[C@H](C(=O)N[C@@H](CC(N)=O)C(=O)N[C@H](C(=O)NCC(=O)N[C@@H](CO)C(=O)NCC(=O)N[C@H](C(=O)N1CCC[C@H]1C(N)=O)[C@@H](C)O)[C@@H](C)O)[C@@H](C)O)[C@@H](C)O` [sCT, salmon calcitonin], for which the “residence time (dissociation)” value in the assay with AMYRs and CTR (comparable for all AMYRs / all receptors) was 45 to 60 min. For the same molecule, in assay [1], the “reduction of relative lean mass in KO mice compared to WT” value is reported as 15%. In addition, the “effect on body composition” value in assay [1] (WT mice) is “no effect”. The “Predicted (LS) mean diff., AP cFos after square root transformation” value in assay [2] (RAMP 1/3 KO, Vehicle vs. sCT (3 nmol/kg), Tukey) is listed as -8.457; in assay [2] (RAMP 1/3 KO, Vehicle vs. sCT (150 nmol/kg), Tukey), -9.262; in assay [2] (RAMP 1/3 KO, sCT (3 nmol/kg) vs. Cagrilintide (3 nmol/kg), Tukey), 4.579; in assay [2] (RAMP 1/3 KO, sCT (3 nmol/kg) vs. sCT (150 nmol/kg), Tukey), -0.8046; in assay [2] (RAMP 1/3 KO, sCT (150 nmol/kg) vs. Cagrilintide (3 nmol/kg), Tukey), 5.384; in assay [2] (WT, Vehicle vs. sCT (3 nmol/kg), Tukey), -8.131. The “Predicted (LS) mean diff., AP cFos after square root transformation” value is recorded as -7.632 in assay [2] (WT, Vehicle vs. sCT (150 nmol/kg), Tukey); 1.906 in assay [2] (WT, sCT (3 nmol/kg) vs. Cagrilintide (3 nmol/kg), Tukey); 0.4986 in assay [2] (WT, sCT (3 nmol/kg) vs. sCT (150 nmol/kg), Tukey); 1.408 in assay [2] (WT, sCT (150 nmol/kg) vs. Cagrilintide (3 nmol/kg), Tukey); -0.1355 in assay [2] (sCT (3 nmol/kg), WT vs. RAMP 1/3 KO); -1.439 in assay [2] (sCT (150 nmol/kg), WT vs. RAMP 1/3 KO). For the same molecule, the “acute anorectic effect on day 1” value in assay [3] (RAMP1/3 KO mice, cagrilintide 3, sCT 150 nmol/kg s.c.) is on record as “no effect”. Also, the “weight gain on subchronic treatment” value in assay [3] (WT mice, 150 nmol/kg/d s.c.) was “approx. 2 g”. In addition, in assay [3] (WT mice, cagrilintide 3, sCT 150 nmol/kg s.c., mean ± SEM, n = 7–8/group), the “Food intake on Day 1” value came to 1.5 ± 0.2 g.
For the molecule Davalintide, the “binding to AMYRs” value in the assay on AMYRs and CTR was “binds irreversibly”.
